Where two headings read alike, the source gives them in different places.
Key:
P-gp/Caco-2 = conditions: 5 μM; cited from earlier work
BV2 microglia cell line = conditions: cited from earlier work
[1] = dog, 1 μM; cited from earlier work
[2] = tested on: CYP mRNA expression (CYP1A2, CYP2B, CYP3A); conditions: 0.5 to 50 μM, 48 h
BCRP/MDCK = conditions: 5 μM; cited from earlier work
[3] = human, 1 μM; cited from earlier work

**Q.** Which results are given for `CN1CCN(c2cc(-c3ccncc3)c(-c3ccc4ccccc4c3)nn2)CC1` [Compound 11, 6-(4-Methylpiperazin-1-yl)-3-(naphthalen-2-yl)-4-(pyridin-4-yl)pyridazine]?
**A.** Permeability Caco-2 (P-gp/Caco-2): highly permeable; Pump substrate status P-gp (P-gp/Caco-2): Not substrate; cell proliferation, migration, or phagocytosis (BV2 microglia cell line): No effect on cell proliferation, migration, or phagocytosis; Hepatocyte stability T1/2 [1]: Human, T1/2 > 120 min; dog, T1/2 > 120 min (see ref ([14])); CYP induction [2]: Negative (see Experimental Section); Permeability MDCK (BCRP/MDCK): highly permeable; Pump substrate status BCRP (BCRP/MDCK): Not substrate; Hepatocyte stability T1/2 [3]: Human, T1/2 > 120 min; dog, T1/2 > 120 min (see ref ([14]))
